Assay results as given in publication PMC10447463, “Data-mining unveils structure–property–activity correlation of viral infectivity enhancing self-assembling peptides” (Nature Communications, 2023).
Read-outs that look alike come from different tables or passages of the source.

Legend:
[1] = tested on: HIV-1 infection of TZM-bl cells; experiment: HIV-1 infectivity enhancement assay, β-galactosidase luminescence; assay type: cell-based; settings: for Absolute Infectivity / RLU /s (Feb2021): unrounded values of the 1.3 µM column; for Rel-to EFC / n-fold to virus: Fig S8 panels B, D; for Rel-to EFC: infectivity enhancement relative to EF-C; for Log10 Inf. rel. to EF-C: log10 of HIV-1 infection of TZM-bl cells relative to EF-C, Fig S15 source data, asymmetric std dev errors
[2] = assay type: physicochemical; settings: STD prep
[3] = assay type: physicochemical
Outline: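 Fibrils (1 mg/mL solution) were mixed with 50 µM ThT in PBS for 15 min at RT, and fluorescence was read at λex 440/λem 488 nm against a PBS blank, as a triplicate mean ± SD. Zeta potential came from electrophoretic mobility (Smoluchowski) after 1 d aggregation at 1 mg/mL in PBS pH 7.4, diluted into 1 mM KCl.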

[4] = Feb2021, 1.3 µM value relative to virus only (0 µM)
[5] = Feb2021, log10 of infectivity relative to EF-C
[6] = Feb2021, n-fold infectivity relative to EF-C
[7] = infectivity n-fold relative to virus alone
[8] = infectivity class (low / medium / high) of each library peptide, main list in c1-c6, same classes repeated in sub-lists of sequences containing the hydrophobicity/charge patterns P+,H0,P+,H0,P0,H0,P0, P+,H0,P0,H0,P0,H0,P0, P+,H0,P0,H0
[9] = relative to blank 42.1851851851852 a.u.
[10] = infectivity class (low / medium / high) of the peptide in the sequence-pattern analysis, Fig. S22-A4, class limits not given
[11] = ThT fluorescence relative to blank (42.1851851851852 a.u.)
[12] = Feb2021, Log10 of infectivity relative to EF-C
[13] = Feb2021, n-fold enhancement relative to EF-C
[14] = Feb2021 run, infectivity n-fold relative to virus alone
[15] = Feb2021 run, log10 of infectivity relative to EF-C
[16] = Feb2021 run, n-fold infectivity relative to EF-C

Substance	n-fold to virus (Feb2021) [1, 4]	Log10 of Rel to EFC (Feb2021) [1, 5]	Rel-to EFC (Feb-2021) [1, 6]	Absolute Infectivity / RLU /s (Feb2021) ([1]; Feb2021)	infectivity [1, 8]	Log10 Inf. rel. to EF-C [1]	TEM: 1= fibrils, 0= aggregates (micelle), 0.5 = aggregates and fibrils, -1 = nothing obersved, STD prep [2]	Tht category (> 1.5 to blank = +) ([3]; category 1/0)	Tht rel to blank (42.1851851851852) [3, 9]	Tht rel to blank (42.1851851851852) [3, 11]	Log10 of Rel to EFC (Feb2021) [1, 12]	Rel-to EFC (Feb-2021) [1, 13]	n-fold to virus (Feb2021) [1, 14]	Log10 of Rel to EFC (Feb2021) [1, 15]	Rel-to EFC (Feb-2021) [1, 16]	other results
CKWKWQW [KB4]	10.67	-0.5951	0.254	6760 RLU /s	medium	-0.5951	0	0 (ThT-inactive (N-Fold <2))	1.321	–	–	–	–	–	–	Rel-to EFC [1]: 0.254; n-fold to virus [1, 7]: 10.67
CKYKYQY [KB2]	1.711	-1.39	0.04071	1083 RLU /s	low	-1.3903	0	1 (ThT. Cat is 1, if Rel. ThT >2)	3.119	–	–	–	–	–	–	–
CEIEIQINM [TM144]	2.736	-1.186	0.06512	3593 RLU /s	–	-1.186	1	1 (ThT. Cat is 1, if Rel. ThT >2)	5.13	5.13	–	–	–	–	–	infectivity [1, 10]: low; Rel-to EFC (Feb-2021) ([1]; infectivity enhancement relative to EF-C (=1), Feb2021 run): 0.06512; n-fold to virus (Feb2021) ([1]; infectivity n-fold relative to virus only, Feb2021 run): 2.736; Log10 of Rel to EFC (Feb2021) ([1]; log10 of infectivity relative to EF-C, Feb2021 run): -1.186
QCKAKAQA [CK24]	1.061	–	0.02526	806.7 RLU /s	low	-1.598	0.5	0 (ThT-inactive (N-Fold <2))	1.319	1.319	-1.598	0.02526	1.061	-1.598	0.02526	Rel-to EFC [1]: 0.02526; n-fold to virus [1, 7]: 1.0614
RGDCKIKIQINM [TM45]	–	–	–	–	medium	-0.6272	1	0 (ThT-inactive (N-Fold <2))	1.835	1.835	-0.6272	0.2359	9.913	-0.6272	0.2359	Tht category (> 1.5 to blank = +) ([3]; FigS26): 0 (Tht category (> 1.5 to blank = +))
RGDKIKIQIC [MG7/CN1]	–	–	–	–	–	-0.07993	1	1 (ThT. Cat is 1, if Rel. ThT >2)	19.76	19.76	-0.07993	0.8319	34.95	-0.07993	0.8319	infectivity [1, 10]: high; Tht category (> 1.5 to blank = +) ([3]; FigS26): 1 (Tht category (> 1.5 to blank = +))
CSISIQINM [TM145]	8.332	-0.7027	0.1983	10943.33333 RLU /s	medium	-0.7027	0.5	1 (ThT. Cat is 1, if Rel. ThT >2)	5.919	–	–	–	–	–	–	–
